Reference: publication PMC3639963, “A New Class of Small Molecule Inhibitor of BMP Signaling” (PLoS ONE, 2013)

Experiments:
Assay in all cases: Nanosyn kinase profiling
Assay type in all cases: biochemical
Details in all cases: read-out: Percentage inhibition; for inhibition at 0.1 µM: 0.1 µM inhibitor; for inhibition at 1 µM: 1 µM inhibitor
BRSK1 = biological target: T1, BRSK1 (Homo sapiens, UniProt Q8TDC3)
T1 construct: purchased Nanosyn (enzymatic panel); SGC in-house recombinant human kinases (DSF panel); Invitrogen (ALK1-6)
T1 sequence (Q8TDC3 1-778): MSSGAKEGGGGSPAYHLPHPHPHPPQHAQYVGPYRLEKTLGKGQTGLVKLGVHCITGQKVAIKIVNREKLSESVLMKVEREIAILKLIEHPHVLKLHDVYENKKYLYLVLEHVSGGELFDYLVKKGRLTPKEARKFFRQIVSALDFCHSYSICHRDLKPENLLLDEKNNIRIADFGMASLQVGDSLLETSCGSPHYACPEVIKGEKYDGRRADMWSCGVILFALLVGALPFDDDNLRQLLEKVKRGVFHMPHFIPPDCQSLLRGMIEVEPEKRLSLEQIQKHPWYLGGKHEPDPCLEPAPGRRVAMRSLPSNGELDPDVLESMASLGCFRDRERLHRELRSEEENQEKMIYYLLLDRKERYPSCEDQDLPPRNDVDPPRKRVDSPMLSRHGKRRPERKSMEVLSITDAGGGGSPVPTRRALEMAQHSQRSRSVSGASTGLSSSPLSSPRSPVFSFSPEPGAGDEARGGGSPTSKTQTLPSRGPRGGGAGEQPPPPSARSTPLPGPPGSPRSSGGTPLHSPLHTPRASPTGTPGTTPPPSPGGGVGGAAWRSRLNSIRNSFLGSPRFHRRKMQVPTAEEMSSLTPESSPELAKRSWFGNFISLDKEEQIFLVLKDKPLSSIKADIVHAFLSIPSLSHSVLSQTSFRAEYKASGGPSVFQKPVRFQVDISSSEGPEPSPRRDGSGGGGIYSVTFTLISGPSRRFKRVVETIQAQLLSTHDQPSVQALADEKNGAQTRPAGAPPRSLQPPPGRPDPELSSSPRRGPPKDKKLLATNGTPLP
Summary of the method: (§1)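 Percent inhibition of each kinase was measured with the inhibitor at 0.1 µM and at 1 µM, as part of a 200-kinase human selectivity panel.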

MAPK1 = biological target: T2, MAPK1 (Homo sapiens, UniProt P28482)
T2 construct: purchased Nanosyn (enzymatic panel); SGC in-house recombinant human kinases (DSF panel); Invitrogen (ALK1-6)
Summary of the method: as §1

ROS = biological target: T3, ROS (Homo sapiens, UniProt P08922)
T3 construct: purchased Nanosyn (enzymatic panel); SGC in-house recombinant human kinases (DSF panel); Invitrogen (ALK1-6)
Summary of the method: as §1

CLK3 = biological target: T4, CLK3 (Homo sapiens, UniProt P49761)
T4 construct: purchased Nanosyn (enzymatic panel); SGC in-house recombinant human kinases (DSF panel); Invitrogen (ALK1-6)
Summary of the method: as §1

RSK3 = biological target: T5, RSK3 (Homo sapiens, UniProt Q15349)
T5 construct: purchased Nanosyn (enzymatic panel); SGC in-house recombinant human kinases (DSF panel); Invitrogen (ALK1-6)
Summary of the method: as §1

NEK9 = biological target: T6, NEK9 (Homo sapiens, UniProt Q8TD19)
T6 construct: purchased Nanosyn (enzymatic panel); SGC in-house recombinant human kinases (DSF panel); Invitrogen (ALK1-6)
T6 sequence (Q8TD19 1-979): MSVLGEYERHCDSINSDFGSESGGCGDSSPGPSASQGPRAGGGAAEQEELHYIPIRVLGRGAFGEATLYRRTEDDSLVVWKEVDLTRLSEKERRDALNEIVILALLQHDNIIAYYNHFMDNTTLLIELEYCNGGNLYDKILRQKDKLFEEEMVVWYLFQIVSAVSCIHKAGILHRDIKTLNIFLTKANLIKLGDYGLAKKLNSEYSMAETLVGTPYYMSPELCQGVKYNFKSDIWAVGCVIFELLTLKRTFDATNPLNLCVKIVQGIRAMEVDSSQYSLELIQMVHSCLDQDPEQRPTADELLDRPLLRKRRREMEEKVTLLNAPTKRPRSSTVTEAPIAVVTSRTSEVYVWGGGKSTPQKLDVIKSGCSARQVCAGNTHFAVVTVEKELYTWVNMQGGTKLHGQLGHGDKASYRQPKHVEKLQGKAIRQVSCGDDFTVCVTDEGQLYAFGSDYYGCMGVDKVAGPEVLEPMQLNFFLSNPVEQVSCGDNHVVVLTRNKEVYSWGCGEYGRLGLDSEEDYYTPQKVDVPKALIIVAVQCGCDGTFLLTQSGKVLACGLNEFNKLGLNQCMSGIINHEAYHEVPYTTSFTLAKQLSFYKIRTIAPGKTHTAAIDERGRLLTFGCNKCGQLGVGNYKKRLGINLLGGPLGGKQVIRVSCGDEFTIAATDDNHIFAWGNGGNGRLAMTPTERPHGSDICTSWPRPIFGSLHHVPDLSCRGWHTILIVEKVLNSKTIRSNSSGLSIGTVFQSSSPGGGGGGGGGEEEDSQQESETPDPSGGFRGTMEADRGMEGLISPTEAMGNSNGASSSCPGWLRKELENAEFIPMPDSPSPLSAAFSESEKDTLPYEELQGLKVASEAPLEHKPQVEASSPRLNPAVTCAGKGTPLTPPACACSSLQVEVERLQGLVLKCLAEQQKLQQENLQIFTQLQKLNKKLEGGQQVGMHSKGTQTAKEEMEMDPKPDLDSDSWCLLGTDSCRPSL
Summary of the method: as §1

PAK1 = biological target: T7, PAK1 (Homo sapiens, UniProt Q13153)
T7 construct: purchased Nanosyn (enzymatic panel); SGC in-house recombinant human kinases (DSF panel); Invitrogen (ALK1-6)
Summary of the method: as §1

T2 sequence (P28482 whole entry): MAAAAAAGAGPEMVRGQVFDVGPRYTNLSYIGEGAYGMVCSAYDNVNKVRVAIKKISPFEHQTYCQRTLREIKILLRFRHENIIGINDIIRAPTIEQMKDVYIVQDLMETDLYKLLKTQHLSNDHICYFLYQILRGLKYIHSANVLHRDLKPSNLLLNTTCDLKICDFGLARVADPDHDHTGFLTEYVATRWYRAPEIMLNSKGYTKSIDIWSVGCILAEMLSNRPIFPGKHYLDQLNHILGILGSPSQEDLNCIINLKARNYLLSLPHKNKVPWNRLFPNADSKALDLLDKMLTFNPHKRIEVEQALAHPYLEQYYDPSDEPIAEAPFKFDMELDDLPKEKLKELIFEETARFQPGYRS
T5 sequence (Q15349 whole entry): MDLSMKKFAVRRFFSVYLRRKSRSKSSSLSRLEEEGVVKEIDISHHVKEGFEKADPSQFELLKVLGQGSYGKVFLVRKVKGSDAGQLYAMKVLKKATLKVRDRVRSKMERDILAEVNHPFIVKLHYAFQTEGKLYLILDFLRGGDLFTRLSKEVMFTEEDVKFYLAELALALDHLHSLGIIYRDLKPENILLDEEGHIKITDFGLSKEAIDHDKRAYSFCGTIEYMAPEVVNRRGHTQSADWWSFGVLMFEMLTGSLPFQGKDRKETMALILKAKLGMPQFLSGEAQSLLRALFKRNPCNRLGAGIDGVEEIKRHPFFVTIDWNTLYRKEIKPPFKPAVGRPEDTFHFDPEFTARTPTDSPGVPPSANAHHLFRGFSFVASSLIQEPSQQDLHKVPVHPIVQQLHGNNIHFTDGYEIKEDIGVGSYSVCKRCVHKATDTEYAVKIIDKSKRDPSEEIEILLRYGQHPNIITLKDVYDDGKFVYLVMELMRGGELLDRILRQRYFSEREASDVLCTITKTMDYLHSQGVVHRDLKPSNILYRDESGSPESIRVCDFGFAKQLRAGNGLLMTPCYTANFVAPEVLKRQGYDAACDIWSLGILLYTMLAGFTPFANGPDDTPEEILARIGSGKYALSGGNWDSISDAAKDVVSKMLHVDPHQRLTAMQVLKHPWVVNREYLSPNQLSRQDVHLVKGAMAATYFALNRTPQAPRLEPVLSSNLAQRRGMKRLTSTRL
T7 sequence (Q13153 whole entry): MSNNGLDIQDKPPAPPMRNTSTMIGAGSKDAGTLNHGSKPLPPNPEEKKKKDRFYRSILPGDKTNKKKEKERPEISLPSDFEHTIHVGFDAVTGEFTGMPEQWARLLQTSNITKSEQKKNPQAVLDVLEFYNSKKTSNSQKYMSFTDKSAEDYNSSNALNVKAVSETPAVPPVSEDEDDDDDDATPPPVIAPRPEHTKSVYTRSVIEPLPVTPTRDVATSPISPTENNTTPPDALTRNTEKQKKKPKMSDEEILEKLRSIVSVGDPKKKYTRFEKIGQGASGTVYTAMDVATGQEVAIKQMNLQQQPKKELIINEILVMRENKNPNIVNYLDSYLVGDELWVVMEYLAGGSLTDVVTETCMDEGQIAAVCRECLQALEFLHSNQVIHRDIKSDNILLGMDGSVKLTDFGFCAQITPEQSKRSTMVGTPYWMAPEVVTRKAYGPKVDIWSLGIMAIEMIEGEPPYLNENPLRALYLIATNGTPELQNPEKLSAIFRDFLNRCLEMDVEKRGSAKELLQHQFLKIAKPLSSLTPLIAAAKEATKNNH
T4 sequence (P49761 whole entry): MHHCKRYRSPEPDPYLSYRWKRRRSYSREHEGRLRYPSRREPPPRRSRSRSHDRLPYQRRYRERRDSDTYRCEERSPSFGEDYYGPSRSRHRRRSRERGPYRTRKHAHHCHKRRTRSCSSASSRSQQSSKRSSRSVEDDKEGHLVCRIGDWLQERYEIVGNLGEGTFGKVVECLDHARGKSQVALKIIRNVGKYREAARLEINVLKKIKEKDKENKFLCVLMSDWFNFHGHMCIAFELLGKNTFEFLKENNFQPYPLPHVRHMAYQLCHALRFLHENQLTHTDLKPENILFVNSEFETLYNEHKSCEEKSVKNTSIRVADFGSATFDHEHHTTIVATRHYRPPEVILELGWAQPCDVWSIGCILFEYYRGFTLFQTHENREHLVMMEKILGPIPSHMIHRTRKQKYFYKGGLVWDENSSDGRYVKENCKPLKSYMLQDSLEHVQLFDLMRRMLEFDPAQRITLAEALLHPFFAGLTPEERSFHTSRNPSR
T3 sequence (P08922 28-2347): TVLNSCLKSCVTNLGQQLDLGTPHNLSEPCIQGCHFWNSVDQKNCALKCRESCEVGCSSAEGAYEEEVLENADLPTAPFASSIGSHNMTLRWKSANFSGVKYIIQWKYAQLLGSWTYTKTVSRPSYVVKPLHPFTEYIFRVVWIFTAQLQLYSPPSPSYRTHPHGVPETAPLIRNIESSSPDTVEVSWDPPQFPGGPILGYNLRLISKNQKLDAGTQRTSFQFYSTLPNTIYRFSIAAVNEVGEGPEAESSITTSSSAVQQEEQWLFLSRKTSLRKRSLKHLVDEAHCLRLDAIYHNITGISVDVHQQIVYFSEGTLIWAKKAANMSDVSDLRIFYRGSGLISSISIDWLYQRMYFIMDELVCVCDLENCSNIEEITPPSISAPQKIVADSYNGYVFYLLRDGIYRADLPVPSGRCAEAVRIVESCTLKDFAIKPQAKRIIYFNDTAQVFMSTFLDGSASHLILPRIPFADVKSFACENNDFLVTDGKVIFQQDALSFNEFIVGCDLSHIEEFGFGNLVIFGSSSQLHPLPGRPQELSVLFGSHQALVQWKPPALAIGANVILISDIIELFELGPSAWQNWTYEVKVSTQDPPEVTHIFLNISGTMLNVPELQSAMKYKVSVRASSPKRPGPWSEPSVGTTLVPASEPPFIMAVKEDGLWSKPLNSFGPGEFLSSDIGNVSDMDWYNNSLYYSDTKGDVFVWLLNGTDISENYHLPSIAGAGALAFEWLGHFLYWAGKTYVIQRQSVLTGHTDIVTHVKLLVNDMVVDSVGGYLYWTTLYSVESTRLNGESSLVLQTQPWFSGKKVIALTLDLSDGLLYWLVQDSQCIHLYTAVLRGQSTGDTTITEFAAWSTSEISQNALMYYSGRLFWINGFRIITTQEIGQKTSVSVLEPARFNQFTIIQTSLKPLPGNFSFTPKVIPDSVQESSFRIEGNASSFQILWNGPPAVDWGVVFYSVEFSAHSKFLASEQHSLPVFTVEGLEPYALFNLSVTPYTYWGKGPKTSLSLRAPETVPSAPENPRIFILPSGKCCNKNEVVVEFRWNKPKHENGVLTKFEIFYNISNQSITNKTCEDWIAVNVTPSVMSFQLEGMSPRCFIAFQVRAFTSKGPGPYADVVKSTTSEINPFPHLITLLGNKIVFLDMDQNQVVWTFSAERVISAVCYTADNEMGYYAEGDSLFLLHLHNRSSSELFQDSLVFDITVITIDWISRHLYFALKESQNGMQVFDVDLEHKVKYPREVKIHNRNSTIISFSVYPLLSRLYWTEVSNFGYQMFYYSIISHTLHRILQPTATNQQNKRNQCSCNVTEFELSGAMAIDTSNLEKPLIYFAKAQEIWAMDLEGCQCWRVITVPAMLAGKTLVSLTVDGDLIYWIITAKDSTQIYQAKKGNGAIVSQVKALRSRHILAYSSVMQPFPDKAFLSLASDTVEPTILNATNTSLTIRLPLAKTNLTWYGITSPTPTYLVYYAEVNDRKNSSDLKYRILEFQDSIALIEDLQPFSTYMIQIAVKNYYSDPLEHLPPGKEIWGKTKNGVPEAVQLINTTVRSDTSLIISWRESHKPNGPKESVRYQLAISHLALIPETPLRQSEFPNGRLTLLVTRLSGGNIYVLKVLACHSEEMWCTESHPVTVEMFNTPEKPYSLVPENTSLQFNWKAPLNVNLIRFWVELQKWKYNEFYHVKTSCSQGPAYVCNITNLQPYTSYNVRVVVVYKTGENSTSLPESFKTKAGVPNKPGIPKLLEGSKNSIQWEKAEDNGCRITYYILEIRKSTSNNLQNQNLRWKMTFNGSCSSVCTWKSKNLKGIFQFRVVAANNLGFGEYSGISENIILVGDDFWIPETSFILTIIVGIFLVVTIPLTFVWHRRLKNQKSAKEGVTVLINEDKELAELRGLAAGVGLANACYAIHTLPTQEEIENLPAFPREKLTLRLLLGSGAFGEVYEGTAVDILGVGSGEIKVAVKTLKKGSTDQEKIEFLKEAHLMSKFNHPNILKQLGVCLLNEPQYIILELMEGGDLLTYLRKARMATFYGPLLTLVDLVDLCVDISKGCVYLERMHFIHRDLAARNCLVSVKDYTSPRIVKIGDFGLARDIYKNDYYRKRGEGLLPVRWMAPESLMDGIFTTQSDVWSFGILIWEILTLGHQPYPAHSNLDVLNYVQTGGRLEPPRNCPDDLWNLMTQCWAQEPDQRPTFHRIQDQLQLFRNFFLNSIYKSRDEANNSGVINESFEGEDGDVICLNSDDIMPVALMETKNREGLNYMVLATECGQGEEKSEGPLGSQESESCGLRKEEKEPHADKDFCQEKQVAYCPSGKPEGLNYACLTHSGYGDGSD

SMILES	inhibition at 0.1 µM (BRSK1) [%]	inhibition at 1 µM (BRSK1) [%]	inhibition at 0.1 µM (MAPK1) [%]	inhibition at 1 µM (MAPK1) [%]	inhibition at 0.1 µM (ROS) [%]	inhibition at 1 µM (ROS) [%]	inhibition at 0.1 µM (CLK3) [%]	inhibition at 1 µM (CLK3) [%]	inhibition at 0.1 µM (RSK3) [%]	inhibition at 1 µM (RSK3) [%]	inhibition at 0.1 µM (NEK9) [%]	inhibition at 1 µM (NEK9) [%]	inhibition at 0.1 µM (PAK1) [%]	inhibition at 1 µM (PAK1) [%]
COc1cc(-c2cc(-c3cccc(O)c3)cnc2N)cc(OC)c1OC [K02288, 3-[6-amino-5-(3,4,5-trimethoxy-phenyl)-pyridin-3-yl]-phenol]	2.3	0	-3	9.9	1.8	6.8	1.4	1.5	0.6	1.1	5.3	-2	0	0.6
c1ccc2c(-c3cnn4cc(-c5ccc(N6CCNCC6)cc5)cnc34)ccnc2c1 [LDN-193189]	3	17	2.6	1.4	3.8	3.7	0.5	2.6	1.5	5.6	1.9	6.6	4.3	4.9
